Key:
L1210 cells = test: L1210 murine leukemia cell growth inhibition in vitro; assay type: cell-based; details: Mus musculus, 72 h, Table 1, three days incubation, 50% inhibition of growth, read-out: L1210 in vitro ID50
Procedure: Another test protocol uses L1210 cells, a murine leukemia cell line, grown in RPMI 1640 supplemented with 5% fetal bovine serum and gentamicin ([…]). Drug dilutions are prepared in the appropriate solvent and 20 µl of each dilution are added to 24-well Linbro tissue culture plates, followed by the addition of 2.0 ml of cell suspension containing 3 x 10^4 cells per ml. Solvent and medium controls are included in each test. After incubation at 37°C forthree days in 5% C02, the contents of each well are removed and the cells counted in a ZBI Coulter counter. Percent growth are calculated relative to the controls and the levels of drug activity are expressed as ID50 in moles per liter.

HCT-8 cells = test: in vitro proliferating human colon adenocarcinoma (HCA) cell screen; assay type: cell-based; details: Table 1, 60 to 65 hours with compound, 50% inhibition of growth, read-out: HCA—3 in vitro ID50
Procedure: One test protocol is the in vitro proliferating human colon adenocarcinoma (HCA) cell screen. In this test, HCT-8 cells (HCA cell line received from Yale University) are trypsinized using trypsin-EDTA. A single cell suspension is achieved by passing the cells through a 26 gauge needle with a 20 cc syringe. A cell suspension is prepared using RPMI 1640 + 10% FCS + 50) g/ml gentamicin sulfate with a cell concentration of approximately 30,000 cells/ml. The cell suspension is dispensed in Linbro 24-well plates; 1 ml/well. The plates are incubated for approximately 48 hours at 37°C in a 5% C02 atmosphere. At this time test compounds are added in the appropriate concentration. Five µl of the 200 µg/ml stock solution is added to each well in primary test. Ten µl of the appropirate dilution is added to each well for a titration test. The plates are re-incubated an additional 60 to 65 hours at 37°C in a 5% C02 atmosphere. The cells are lysed using a mix of cationic surfactant, glacial acetic acid, and sodium chloride. Two ml of the lysed cell suspension from each well is added to 8 ml of diluent. The number of nuclei is determined using a Coulter counter (ZBI model), and a percent growth for each drug concentration is calculated. From this, an ID50 molar concentration of a compound (that results in 50% inhibition of growth) is determined.

[1] = test system: lymphocytic leukemia P388; test: in vivo lymphocytic leukemia P388 test; parameters: species or system mice; details: for response vs control in vivo at 3.12 mg/kg: Dose 3.12 mg/kg intraperitoneally once daily for five days; for response vs control in vivo at 6.25 mg/kg: Dose 6.25 mg/kg intraperitoneally once daily for five days; for response vs control in vivo at 12.5 mg/kg: Dose 12.50 mg/kg intraperitoneally once daily for five days; for P388 in vivo Cures: remark printed beside T/C × 100; for response vs control in vivo at 25 mg/kg: Dose 25.00 mg/kg intraperitoneally once daily for five days
Procedure: Another test protocol is the in vivo lymphocytic leukemia P388 test. The animals used are either male or female CD2F, mice. There are six or seven animals per test group. The tumor transplant is by intraperitoneal injection of dilute ascitic fluid containing cells of lymphocytic leukemia P388. The test compounds are administered intraperitoneally once daily for five consecutive days at various doses following tumor inoculation. The animals are weighed and survivors are recorded on a regular basis for 30 days. A compound is designated "toxic" if, at a given dose, all animals died prior to four days after the first injection of drug. A ratio of survival time for treated (T)/control (C) animals is calculated. A criterion for efficacy is a ratio T/C times 100 greater than or equal to 125. See Cancer Chemotherapy Reports, Part 3, 3; 1 (1972) for a comprehensive discussion of the protocol.

[2] = test system: Aerobacter aerogenes 0126; test: in vitro antibacterial/antifungal (ABF) agar-disk diffusion test; assay type: cell-based; details: Klebsiella aerogenes, read-out: ABF Zone Diameter (cont. in mg/ml) A. Aero-genes; for zone of inhibition at 3000 µg/mL: 3 mg/ml; for zone of inhibition at 500 µg/mL: 0.5 mg/ml
Procedure: (§1) Still another test protocol is the in vitro antibacterial/antifungal (ABF) test. Compounds are tested for antimicrobial activity in an agar-disk diffusion assay, a standard microbiological technique for testing antibiotics'. After incubation of each culture with a test compound, a zone of inhibition is determined. The zone diameter (mm) of active compounds ranges from a minimum of 13.5 mm to as high as 60 mm, with a greater diameter reflecting higher activity. For convenience, values are reported for two gram-negative bacteria (Aerobacter aerogenes 0126 and Escherichia coli 04863), two gram-positive bacteria (Bacillus subtilis 04555 and Streptococcus faecalis 05045 utilizing AM-09 medium), and one mycelial fungus (Penicillium avellaneum M2988).

Bacillus subtilis 04555 = test: as above; assay type: cell-based; details: read-out: ABF Zone Diameter (cont. in mg/ml) B. Sub-tilis; for zone of inhibition at 3000 µg/mL: 3 mg/ml; for zone of inhibition at 500 µg/mL: 0.5 mg/ml
Procedure: as §1

Escherichia coli 04863 = test: as above; assay type: cell-based; details: read-out: ABF Zone Diameter (cont. in mg/ml) E. Coli; for zone of inhibition at 3000 µg/mL: 3 mg/ml; for zone of inhibition at 500 µg/mL: 0.5 mg/ml; for zone of inhibition at 100 µg/mL: 0.1 mg/ml
Procedure: as §1

[3] = test system: Penicillium avellaneum M2988; test: as above; assay type: cell-based; details: Hamigera avellanea, read-out: ABF Zone Diameter (cont. in mg/ml) P. Avell-aneum; for zone of inhibition at 3000 µg/mL: 3 mg/ml
Procedure: as §1

[4] = test system: Streptococcus faecalis 05045; test: as above; assay type: cell-based; details: Enterococcus faecalis, AM-09 medium, read-out: ABF Zone Diameter (cont. in mg/ml) S. Fae-calis; for zone of inhibition at 500 µg/mL: 0.5 mg/ml; for zone of inhibition at 3000 µg/mL: 3 mg/ml; for zone of inhibition at 1000 µg/mL: 1 mg/ml
Procedure: as §1

[5] = Mus musculus, P388, ip, 120 h, read-out: P388 in vivo T/C × 100

Row | Compound | IC50 (L1210 cells) | IC50 (HCT-8 cells) | zone of inhibition at 3000 µg/mL (Bacillus subtilis 04555) | zone of inhibition at 3000 µg/mL (Escherichia coli 04863) | zone of inhibition at 3000 µg/mL [3] | response vs control in vivo at 3.12 mg/kg [1, 5] | response vs control in vivo at 6.25 mg/kg [1, 5] | response vs control in vivo at 12.5 mg/kg [1, 5] | zone of inhibition at 500 µg/mL (Bacillus subtilis 04555) | zone of inhibition at 3000 µg/mL [4] | response vs control in vivo at 25 mg/kg [1, 5] | zone of inhibition at 500 µg/mL [2] | other results
1 | CCN(CC)CCn1nc2c3c(c(NCCN4CCOC4=O)ccc31)Sc1ccccc1-2 [CH2CH2N(C2H5)2 /] | 950 nM | 1800 nM | 13 mm | 0 mm | 0 mm |  |  |  |  |  |  |  | response vs control in vivo at 47.45 mg/kg ([1]; Mus musculus, P388, ip, 120 h, Dose 47.45 mg/kg intraperitoneally once daily for five days, read-out: P388 in vivo T/C × 100): 141%; response vs control in vivo at 50 mg/kg ([1]; Mus musculus, P388, ip, 120 h, Dose 50.00 mg/kg intraperitoneally once daily for five days, read-out: P388 in vivo T/C × 100): 140%; response vs control in vivo at 63.28 mg/kg ([1]; Mus musculus, P388, ip, 120 h, Dose 63.28 mg/kg intraperitoneally once daily for five days, read-out: P388 in vivo T/C × 100): 165%; response vs control in vivo at 84.38 mg/kg ([1]; Mus musculus, P388, ip, 120 h, Dose 84.38 mg/kg intraperitoneally once daily for five days, read-out: P388 in vivo T/C × 100): 193%; response vs control in vivo at 100 mg/kg ([1]; Mus musculus, P388, ip, 120 h, Dose 100.00 mg/kg intraperitoneally once daily for five days, read-out: P388 in vivo T/C × 100): 218%; zone of inhibition at 3000 µg/mL [2]: 0 mm; zone of inhibition at 500 µg/mL [4]: 14 mm
2 | CCN(CC)CCn1nc2c3c(c(NCCNCCO)ccc31)Sc1ccccc1-2 [CH2CH2N(C2H5)2 / NHCH2CH2NHCH2CH2OH, 2-[[2-[[2-[2-(Diethylamino)ethyl]-2H[1]benzothiopyrano[4,3,2-cd]indazol-5-yl]amino]ethyl]amino]ethanol] | 82 nM | 200 nM |  |  | 0 mm | 209% | 219% | 280% | 18 mm |  |  |  | zone of inhibition at 100 µg/mL ([2]; 0.1 mg/ml): 15 mm; zone of inhibition at 500 µg/mL (Escherichia coli 04863): 26 mm; zone of inhibition at 500 µg/mL [4]: 16 mm
3 | CN(C)CCn1nc2c3c(c([N+](=O)[O-])ccc31)Sc1ccccc1-2 [CH2CH2N(CH3)2 / NO2, N,N dimethyl-5-nitro-2H[1]benzothiopyrano[4,3,2-cd]indazole-2-ethanamine] | 79 nM | 97 nM | 15 mm |  |  |  |  | 158% |  | 15 mm |  |  | zone of inhibition at 1000 µg/mL ([2]; 1 mg/ml): 15 mm; zone of inhibition at 100 µg/mL (Escherichia coli 04863): 14 mm; zone of inhibition at 100 µg/mL ([3]; 0.1 mg/ml): 15 mm
4 | CCN(CC)CCn1nc2c3c(c(NCCN)ccc31)Sc1ccccc1-2 [CH2CH2N(C2H5)2 / NHCH2CH2NH2, N-[2-[2-(Diethylamino)ethyl]-2H[1]benzothiopyrano[4,3,2-cd]indazol-5-yl]-1,2-ethanediamine] | 46 nM | 97 nM |  | 0 mm | 0 mm | 178% | 215% | 297% | 20 mm |  | 148% | 19 mm | P388 in vivo Cures ([1]; Dose 12.50 mg/kg): Cures; P388 in vivo Cures ([1]; Dose 25.00 mg/kg): Cures; zone of inhibition at 1000 µg/mL [4]: 15 mm
5 | OCCNCCNc1ccc2c3c(nn2CCNCCO)-c2ccccc2Sc13 [CH2CH2NHCH2CH2OH / NHCH2CH2NHCH2CH2OH, 2-[[2-[5-[[2-[(2-Hydroxyethyl)amino]ethyl]amino]-2H[1]benzothiopyrano[4,3,2-cd]indazol-2-yl]ethyl]amino]ethanol] | 400 nM | 480 nM |  |  | 0 mm | 176% | 195% | 271% | 15 mm | 0 mm |  | 14 mm | response vs control in vivo at 0.75 mg/kg ([1]; Mus musculus, P388, ip, 120 h, Dose 0.75 mg/kg intraperitoneally once daily for five days, read-out: P388 in vivo T/C × 100): 146%; response vs control in vivo at 0.78 mg/kg ([1]; Mus musculus, P388, ip, 120 h, Dose 0.78 mg/kg intraperitoneally once daily for five days, read-out: P388 in vivo T/C × 100): 153%; response vs control in vivo at 1.5 mg/kg ([1]; Mus musculus, P388, ip, 120 h, Dose 1.50 mg/kg intraperitoneally once daily for five days, read-out: P388 in vivo T/C × 100): 155%; response vs control in vivo at 1.56 mg/kg ([1]; Mus musculus, P388, ip, 120 h, Dose 1.56 mg/kg intraperitoneally once daily for five days, read-out: P388 in vivo T/C × 100): 180%; response vs control in vivo at 3 mg/kg ([1]; Mus musculus, P388, ip, 120 h, Dose 3.00 mg/kg intraperitoneally once daily for five days, read-out: P388 in vivo T/C × 100): 187%; response vs control in vivo at 6 mg/kg ([1]; Mus musculus, P388, ip, 120 h, Dose 6.00 mg/kg intraperitoneally once daily for five days, read-out: P388 in vivo T/C × 100): 218%; response vs control in vivo at 12 mg/kg ([1]; Mus musculus, P388, ip, 120 h, Dose 12.00 mg/kg intraperitoneally once daily for five days, read-out: P388 in vivo T/C × 100): 270%; zone of inhibition at 500 µg/mL (Escherichia coli 04863): 14 mm
6 | CCN(CC)CCn1nc2c3c(c(N)ccc31)Sc1ccccc1-2 [CH2CH2N(C2H5)2 / NH2, 5-Amino-N,N-diethyl-2H[1]benzothiopyrano[4,3,2-cd]indazole-2-ethanamine] | 130 nM | 1100 nM | 0 mm | 0 mm |  |  |  | 144% |  |  | 162% |  | zone of inhibition at 3000 µg/mL [2]: 0 mm; zone of inhibition at 1000 µg/mL ([3]; 1 mg/ml): 14 mm; zone of inhibition at 1000 µg/mL [4]: 14 mm
7 | CCN(CC)CCNc1ccc2c3c(nn2CCN(CC)CC)-c2ccccc2Sc13 [CH2CH2N(C2H5)2 / NHCH2CH2N(C2H5)2, 5-[[2-(Diethylamino)ethyl]amino]-N,N-diethyl-2H[1]-benzothiopyrano[4,3,2-cd]indazofe-2-ethanamine] | 140 nM | 450 nM |  |  | 17 mm |  |  |  |  | 15 mm | 155% | 14 mm | zone of inhibition at 100 µg/mL (Bacillus subtilis 04555; 0.1 mg/ml): 15 mm; zone of inhibition at 100 µg/mL (Escherichia coli 04863): 18 mm

— EP0114002B1, “Benzothiopyrano(4,3,2,-cd)indazoles, their pharmaceutical compositions and methods for their production” (WARNER-LAMBERT COMPANY, priority 1983, dated 1984)
